The values that follow are results of earlier work, collected in article PMC7062412 (Drug Design, Development and Therapy, 2020).

One data set has as its system ET-1. The note with it: overall animals, isolated organs, cells and subcells.

In the case of `O=C(O)/C=C/c1ccc(O)c(O)c1` [Caffeic Acid, caffeic acid], the “half-life in the body” value is 30 to 60 min. For the same compound, in the data set on ET-1, the “antagonistic biological effect on ET-1” value is on record as “had an antagonistic biological effect on ET-1”.
